Reference: patent US10420341B2, “Herbicidal phenylpyrimidines” (BASF SE, priority 2015, dated 2019)

Key:
APESV = assay: greenhouse pre-emergence herbicidal test; format: in vivo, Apera spica-venti; conditions: pre-emergence method, scale from 0 to 100
From the text: (§1) The seeds of the test plants were sown separately for each species. For the pre-emergence treatment, the active ingredients, which had been suspended or emulsified in water, were applied directly after sowing by means of finely distributing nozzles. The containers were irrigated gently to promote germination and growth and subsequently covered with transparent plastic hoods until the plants had rooted. This cover caused uniform germination of the test plants, unless this had been impaired by the active ingredients. Depending on the species, the plants were kept at 10-25° C. or 20-35° C., respectively. The test period extended over 2 to 4 weeks. During this time, the plants were tended, and their response to the individual treatments was evaluated. Evaluation was carried out using a scale from 0 to 100. 100 means no emergence of the plants, or complete destruction of at least the aerial moieties, and 0 means no damage, or normal course of growth. […] The plants used in the greenhouse experiments were of the following species: [table]

ECHCG [1] = assay: greenhouse pre-emergence herbicidal test; format: in vivo, Echinocloa crus-galli; conditions: pre-emergence method, scale from 0 to 100
From the text: as §1

ALOMY = assay: greenhouse post-emergence herbicidal test; format: in vivo, Alopercurus myosuroides; conditions: post-emergence method, scale from 0 to 100
From the text: (§2) The seeds of the test plants were sown separately for each species. For the post-emergence treatment, the test plants were first grown to a height of 3 to 15 cm, depending on the plant habit, and only then treated with the active ingredients which had been suspended or emulsified in water. For this purpose, the test plants were either sown directly and grown in the same containers, or they were first grown separately as seedlings and transplanted into the test containers a few days prior to treatment. Depending on the species, the plants were kept at 10-25° C. or 20-35° C., respectively. The test period extended over 2 to 4 weeks. During this time, the plants were tended, and their response to the individual treatments was evaluated. Evaluation was carried out using a scale from 0 to 100. 100 means no emergence of the plants, or complete destruction of at least the aerial moieties, and 0 means no damage, or normal course of growth. […] The plants used in the greenhouse experiments were of the following species: [table]

ECHCG [2] = assay: greenhouse post-emergence herbicidal test; format: in vivo, Echinocloa crus-galli; conditions: post-emergence method, scale from 0 to 100
From the text: as §2

Structure (SMILES)	herbicidal activity against APESV (APESV; application rate 1000 g/ha)	herbicidal activity against ECHCG (ECHCG [1]; application rate 1000 g/ha)	further results
COc1ccc(C)c(-c2cnc(C3CC3)nc2C(=O)O)c1 [example 166]	–	–	herbicidal activity against APESV (APESV; application rate 500 g/ha): very good (a very good herbicidal activity is given at values of at least 85); herbicidal activity against ECHCG (ECHCG [1]; application rate 500 g/ha): very good (a very good herbicidal activity is given at values of at least 85); herbicidal activity against ALOMY (ALOMY; application rate 500 g/ha): good (A good herbicidal activity is given at values of at least 70); herbicidal activity against ECHCG (ECHCG [2]; application rate 500 g/ha): good (A good herbicidal activity is given at values of at least 70)
COCOc1ccccc1-c1cnc(C2CC2)nc1C(=O)O [example 180]	very good (a very good herbicidal activity is given at values of at least 85)	very good (a very good herbicidal activity is given at values of at least 85)	herbicidal activity against ECHCG (ECHCG [2]; application rate 1000 g/ha): very good (a very good herbicidal activity is given at values of at least 85)
COc1ncc(-c2ccc(C)cc2C)c(C(=O)O)n1 [example 57]	very good (a very good herbicidal activity is given at values of at least 85)	very good (a very good herbicidal activity is given at values of at least 85)	–
COc1ncc(-c2ccccc2C)c(C(=O)O)n1 [example 52]	–	–	herbicidal activity against APESV (APESV; application rate 2000 g/ha): very good (a very good herbicidal activity is given at values of at least 85); herbicidal activity against ECHCG (ECHCG [1]; application rate 2000 g/ha): good (A good herbicidal activity is given at values of at least 70); herbicidal activity against ALOMY (ALOMY; application rate 2000 g/ha): good (A good herbicidal activity is given at values of at least 70)
COc1ccc(OC)c(-c2cnc(C3CC3)nc2C(=O)O)c1 [example 179]	–	–	herbicidal activity against APESV (APESV; application rate 2000 g/ha): very good (a very good herbicidal activity is given at values of at least 85); herbicidal activity against ECHCG (ECHCG [2]; application rate 2000 g/ha): very good (a very good herbicidal activity is given at values of at least 85)
CCc1ncc(-c2cc(C)ccc2C)c(C(=O)OC)n1 [example 23]	very good (a very good herbicidal activity is given at values of at least 85)	very good (a very good herbicidal activity is given at values of at least 85)	–
COc1ccc(-c2cnc(C3CC3)nc2C(=O)O)c(F)c1 [example 297]	very good (a very good herbicidal activity is given at values of at least 85)	–	–
COC(=O)c1nc(C2CC2)ncc1-c1cc(C)ccc1C [example 228]	–	–	herbicidal activity against APESV (APESV; application rate 2000 g/ha): very good (a very good herbicidal activity is given at values of at least 85); herbicidal activity against ALOMY (ALOMY; application rate 2000 g/ha): very good (a very good herbicidal activity is given at values of at least 85); herbicidal activity against ECHCG (ECHCG [2]; application rate 2000 g/ha): very good (a very good herbicidal activity is given at values of at least 85)
COc1ccccc1-c1cnc(C2CC2)nc1C(=O)O [example 177]	very good (a very good herbicidal activity is given at values of at least 85)	very good (a very good herbicidal activity is given at values of at least 85)	herbicidal activity against ECHCG (ECHCG [2]; application rate 1000 g/ha): good (A good herbicidal activity is given at values of at least 70)
CCc1ncc(-c2cc(C)ccc2Cl)c(C(=O)OC)n1 [example 20]	very good (a very good herbicidal activity is given at values of at least 85)	very good (a very good herbicidal activity is given at values of at least 85)	herbicidal activity against ECHCG (ECHCG [2]; application rate 1000 g/ha): good (A good herbicidal activity is given at values of at least 70)
O=C(O)c1nc(C2CC2)ncc1-c1ccccc1C1CC1 [example 187]	very good (a very good herbicidal activity is given at values of at least 85)	very good (a very good herbicidal activity is given at values of at least 85)	herbicidal activity against ECHCG (ECHCG [2]; application rate 1000 g/ha): very good (a very good herbicidal activity is given at values of at least 85)
CCc1ncc(-c2ccccc2Cl)c(C(=O)OC)n1 [example 19]	very good (a very good herbicidal activity is given at values of at least 85)	very good (a very good herbicidal activity is given at values of at least 85)	–
COc1cc(F)ccc1-c1cnc(C2CC2)nc1C(=O)O [example 301]	good (A good herbicidal activity is given at values of at least 70)	very good (a very good herbicidal activity is given at values of at least 85)	–
COC(=O)c1nc(C(C)C)ncc1-c1cc(C)ccc1C [example 38]	good (A good herbicidal activity is given at values of at least 70)	very good (a very good herbicidal activity is given at values of at least 85)	–
CCc1ncc(-c2cc(C)ccc2Cl)c(C(=O)O)n1 [example 7]	very good (a very good herbicidal activity is given at values of at least 85)	very good (a very good herbicidal activity is given at values of at least 85)	–
COC(=O)c1nc(OC)ncc1-c1cc(F)ccc1C [example 62]	very good (a very good herbicidal activity is given at values of at least 85)	good (A good herbicidal activity is given at values of at least 70)	–
COc1ccc(-c2cnc(SC)nc2C(=O)O)c(C)c1 [example 100]	–	–	herbicidal activity against ECHCG (ECHCG [2]; application rate 2000 g/ha): good (A good herbicidal activity is given at values of at least 70)
COc1ccc(Br)c(-c2cnc(C3CC3)nc2C(=O)O)c1 [example 153]	very good (a very good herbicidal activity is given at values of at least 85)	–	herbicidal activity against ECHCG (ECHCG [2]; application rate 1000 g/ha): very good (a very good herbicidal activity is given at values of at least 85)
COc1ccc(-c2cnc(C3CC3)nc2C(=O)O)c(Cl)c1 [example 296]	very good (a very good herbicidal activity is given at values of at least 85)	–	–
COc1ccc(F)c(-c2cnc(SC)nc2C(=O)O)c1 [example 83]	–	–	herbicidal activity against ECHCG (ECHCG [2]; application rate 2000 g/ha): good (A good herbicidal activity is given at values of at least 70)
CCc1ncc(-c2cc(Cl)ccc2C)c(C(=O)OC)n1 [example 22]	good (A good herbicidal activity is given at values of at least 70)	good (A good herbicidal activity is given at values of at least 70)	–
COC(=O)c1nc(C2CC2)ncc1-c1ccc(OC)cc1Cl [example 294]	–	–	herbicidal activity against ECHCG (ECHCG [2]; application rate 1000 g/ha): good (A good herbicidal activity is given at values of at least 70)
O=C(O)c1nc(C2CC2)ncc1-c1cc(Br)ccc1F [example 135]	very good (a very good herbicidal activity is given at values of at least 85)	–	herbicidal activity against ALOMY (ALOMY; application rate 1000 g/ha): herbicidal activity
O=C(O)c1nc(C2CC2)ncc1-c1ccccc1[N+](=O)[O-] [example 160]	very good (a very good herbicidal activity is given at values of at least 85)	very good (a very good herbicidal activity is given at values of at least 85)	herbicidal activity against ECHCG (ECHCG [2]; application rate 1000 g/ha): very good (a very good herbicidal activity is given at values of at least 85)
CC(C)c1ccccc1-c1cnc(C2CC2)nc1C(=O)O [example 175]	very good (a very good herbicidal activity is given at values of at least 85)	very good (a very good herbicidal activity is given at values of at least 85)	–
C=Cc1ccccc1-c1cnc(C2CC2)nc1C(=O)O [example 183]	–	–	herbicidal activity against APESV (APESV; application rate 500 g/ha): very good (a very good herbicidal activity is given at values of at least 85); herbicidal activity against ECHCG (ECHCG [1]; application rate 500 g/ha): very good (a very good herbicidal activity is given at values of at least 85)
CCc1ncc(-c2cc(F)ccc2C)c(C(=O)O)n1 [example 10]	–	–	herbicidal activity against APESV (APESV; application rate 500 g/ha): very good (a very good herbicidal activity is given at values of at least 85); herbicidal activity against ECHCG (ECHCG [1]; application rate 500 g/ha): very good (a very good herbicidal activity is given at values of at least 85)
